Molecules are shown by their SMILES.

`Fc1cccc(Oc2ccc(-c3c[nH]c(COc4ccccc4)n3)cc2)c1F` [Example 56, 4-[4-(2,3-difluorophenoxy)phenyl]-2-(phenoxymethyl)-1H-imidazole] came in with a melting point of 127 to 129 °C.

`Fc1cccc(F)c1Oc1ccc(-c2c[nH]c(COc3ccccc3)n2)cc1` [Example 57, 4-[4-(2,6-difluorophenoxy)phenyl]-2-(phenoxymethyl)-1H-imidazole] had a melting point of 143 to 145 °C.

One may read the melting point as the temperature of the solid-liquid transition.

Source of the values: patent US7534805B2, “Imidazole derivatives, their preparation and their use as medicaments” (Societe de Conseils de Recherches Et d'Applications …, priority 2003, dated 2009).
